Data: US12138254B2, “Chronic nightly dosing of lasmiditan for migraine prevention” (Eli Lilly and Company, priority 2018, dated 2024)

Tests used:
[1] = Fraction unbound in plasma and brain (FUplasma, FUbrain)
patients with migraine = test: Phase 3 studies SAMURAI and SPARTAN, lasmiditan vs placebo for acute treatment of migraine; format: in vivo, human
Description: Prior clinical development studies of lasmiditan have employed acute on-demand treatment regimens to relieve migraine pain and symptoms and treat migraine. […] From this analysis, the authors concluded the primary and key secondary endpoints were met and safety outcomes were consistent across the two Phase 3 studies. Thus, acute on-demand use of lasmiditan provides effective treatment for a substantial population of migraine patients, however some patients may continue to have attacks and improved methods of treating and/or preventing these attacks represent an important therapeutic goal.
The placebo-controlled Phase 3 studies SAMURAI (NCT02439320) and SPARTAN (NCT02605174) evaluated lasmiditan 50 mg [SPARTAN only], 100 mg and 200 mg. […] GLADIATOR (NCT02565186) is a prospective randomized open-label Phase 3 study to evaluate long-term intermittent use of lasmiditan (100 mg or 200 mg) for acute treatment of migraine. An interim analysis of the effects of lasmiditan on migraine disability assessed with the MIDAS scale in GLADIATOR is described below, and has provided surprising and unexpected evidence of persistent beneficial effects in migraine patients.

Compound: CN1CCC(C(=O)c2cccc(NC(=O)c3c(F)cc(F)cc3F)n2)CC1 [Lasmiditan, 2,4,6-trifluoro-N-[6-(1-methyl-piperidin-4-ylcarbonyl)-pyridin-2-yl]-benzamide]
- FUbrain ([1]; brain): FUbrain = 0.117,
- FUplasma ([1]; plasma): FUplasma = 0.459,
- recurrence rates of migraine (patients with migraine; 50-mg to 200-mg dose range, 2-hour to 24-hour time frame after dosing): similarly low
- efficacy on 2-hour pain freedom, dose relation (patients with migraine; completed single-attack Phase 3 studies): dose related
- TEAEs, 200 mg vs 100 mg (patients with migraine; studies of lasmiditan for acute treatment of migraine): numerically more TEAEs
